ChEMBL document CHEMBL1136787, “Design, synthesis, and biological evaluation of monopyrrolinone-based HIV-1 protease inhibitors” (J Med Chem, 2003)
pIC50: −log10 of the molar value.

How the values were obtained:
[1] = target: T1, Human immunodeficiency virus type 1 protease (Human immunodeficiency virus 1, UniProt Q72874); assay: Inhibitory activity against HIV-1 protease was determined
[2] = test system: Human immunodeficiency virus 1; assay: Anti-viral activity was determined; format: functional; details: read-out: CIC95
[3] = target: T1, Human immunodeficiency virus type 1 protease; assay: Inhibitory activity against HIV-1 protease mutant was determined
[4] = Ratio (CIC95/IC50) of cellular antiviral activity over the isolated enzyme potency; format: functional

pIC50 [1]	Structure (SMILES)	IC95 [2]	pIC50 [3]	C/I [4]
8.89	CC(C)C[C@@]1(C2=C(O)[C@](Cc3ccccc3)(C[C@H](O)[C@H](Cc3ccccc3)NC(=O)OC3CCOC3)N=C2)N=CC([C@@H](Cc2ccccc2)C(N)=O)=C1O (single isomer, unassigned; (-))	800 nM	–	–
–	O=C(N[C@@H](Cc1ccccc1)[C@@H](O)C[C@]1(Cc2ccccc2)N=CC(C2c3ccccc3C[C@H]2O)=C1O)O[C@H]1CCOC1 (single isomer, unassigned; (-))	100 nM	6.89	–
–	CC(C)(C)NC(=O)[C@@H]1CN(Cc2cccnc2)CCN1C[C@@H](O)C[C@@H](Cc1ccccc1)C(=O)N[C@H]1c2ccccc2C[C@H]1O.O	25 nM	–	69
8.00	CC(C)C[C@@]1(C2=C(O)[C@](Cc3ccccc3)(C[C@H](O)[C@H](Cc3ccccc3)NC(=O)OC(C)(C)C)N=C2)N=CC([C@@H](Cc2ccccc2)C(N)=O)=C1O	1500 nM	–	–
–	NC(=O)O[C@@H]1Cc2ccccc2C1C1=C(O)[C@](Cc2ccccc2)(C[C@H](O)[C@H](Cc2ccccc2)NC(=O)O[C@H]2CCOC2)N=C1 (single isomer, unassigned; (-))	250 nM	6.44	125
–	CC(C)(C)OC(=O)N[C@@H](Cc1ccccc1)[C@@H](O)C[C@]1(Cc2ccccc2)N=CC(C2c3ccccc3C[C@H]2O)=C1O (single isomer, unassigned; (-))	800 nM	–	–
–	O=C(N[C@@H](Cc1ccccc1)[C@@H](O)C[C@@H](Cc1ccccc1)C(=O)N[C@H]1c2ccccc2C[C@H]1O)OC1CCOC1 (stereo partly drawn)	3 nM	–	100
–	O=C(N[C@@H](Cc1ccccc1)[C@@H](O)C[C@]1(Cc2ccccc2)N=CC(C2CNC(=O)c3ccccc32)=C1O)O[C@H]1CCOC1 (single isomer, unassigned; (+))	781 nM	–	137
–	CC(C)(C)OC(=O)N[C@@H](Cc1ccccc1)[C@@H](O)C[C@@H](Cc1ccccc1)C(=O)N[C@H]1c2ccccc2C[C@H]1O	400 nM	–	1333
